Consider one substance from US9084779B2, “Conjugates of nitroimidazoles and their use as chemotherapeutic agents” (The Johns Hopkins University, priority 2011, dated 2015).

One may read the IC50 as the midpoint of a concentration-inhibition curve. A high value points to a need for much substance.

Test [1] deals with subcutaneous LNCaP prostate cancer cell explants. Briefly: Immunofluorescence analysis of 2-nitroimidazole induced protein adducts in mouse tumor explants. The class given is in vivo, nude mice. As to conditions: daily intravenous tail vein injection for three weeks. The method, then:
Immunofluorescence analysis of 2-nitroimidazole induced protein adducts in mouse tumor explants. Nude mice with subcutaneous LNCaP prostate cancer cell explants were administered Hydroxyprobe-1, M3N or M3N-PEG-2NI for three weeks by daily intravenous tail vein injection with an additional injection 3 hours prior to euthanization. Tumors were removed from the euthanized mice by dissection and incubated in 30% sucrose/PBS overnight at 4° C. Excess sucrose was removed and the tissue was incubated in 30% sucrose/PBS:OCT (1:1) for 1 hour at room temperature. Afterward the tissue was frozen in 100% OCT. Frozen sections of […] were prepared and fixed in 4% PFA/PBS for 1 hour at room temperature. The sections were blocked overnight at 4° C. with 5% goat serum/PBS or at room temperature for 1 hour and then incubated with Hydroxyprobe-1 rabbit antiserum (1:200) overnight at 4° C. After three washes with PBS, the secondary antibody, mouse anti rabbit-FITC (1:1000) was added for 1 hour at room temperature. The sections were mounted using Vectashield and fluorescently imaged.

Test [2] relates to HT29 human colorectal carcinoma cells. Briefly: MTT cell viability assay, 3 days. As to conditions: normoxic conditions, 1% DMSO. The class given is cell-based. Here is the method: (§1) Additional cell culture, drug treatment and cell viability assays. HT29 human colorectal carcinoma cells, 786-0 human renal adenocarcinoma cells and Hep3B human hepatocellular carcinoma cells were obtained from ATCC and maintained in culture according to their recommendations. […] After the treatment period viability of the cells was determined with the MTT cell viability assay and dose response curves were generated using the calculated values of the percentage viable cells relative to the vehicle control.
Background: Tetrazolium assays rely on reduction of a dye to a coloured formazan, in cell work by metabolically active cells.

Test [3] concerns 786-0 human renal adenocarcinoma cells. Briefly: MTT cell viability assay, 3 days. In kind it is cell-based. The settings on record: normoxic conditions, 1% DMSO. The method, then:
as §1

In test [4] the test system is Hep3B human hepatocellular carcinoma cells. The test can be described thus: MTT cell viability assay, 3 days. In kind it is cell-based. As to conditions: normoxic conditions, 1% DMSO. The method, then:
as §1

Test [5] concerns LNCaP human prostate cancer cells. The test can be described thus: Western blot analysis of 2-nitroimidazole induced protein adducts in cell culture. In kind it is cell-based. The settings on record: 80 μM, 6 hours normoxic then 6 hours hypoxic or normoxic. The method, then:
Western blot analysis of 2-nitroimidazole induced protein adducts in LNCaP cell cultures. Exponentially growing LNCaP human prostate cancer cells were treated with DMSO, 80 μM M3N-PEG-2NI or Hypoxyprobe-1 in standard media for 6 hours under normoxic conditions and then under hypoxic or normoxic conditions for additional 6 hours. Afterward the media was aspirated, the cells washed and ice cold RIPA lysis buffer was added and the cells lysed on ice for 15 minutes. The samples were centrifuged and the lysate collected. Cellular proteins in the extracts were analyzed for the presence of protein adducts using standard western blotting technique. The primary antibody was PAb2627 polyclonal antibody (1:200) directed against Hydroxyprobe-1 protein adducts. The secondary antibody was Anti-Rabbit HRP conjugate (1:2000). Detection was by chemiluminescence
On the technique in general: Immunoblotting shows a protein as a band on a membrane.

The subject of test [6] is HT29 human colorectal carcinoma cells. Briefly: Cell viability by plating efficiency (colony formation after replating). The class given is cell-based. As to conditions: 40 μM, 48 h, diluted 10,000 fold and replated, colonies stained eight days later. The method, then:
FIG. 6 depicts the plating efficiency of HT29 human colorectal carcinoma cells after treatment with DMSO, 40μ M3n and 40μ M3N-PEG-2NI. HT29 cells were treated for 48 h with 40 μM M3N, 40 μM M3N-PEG-2NI or the DMSO vehicle. At the end of the treatment period, the cells were diluted 10,000 fold and replated. Eight days later colonies were stained with methylene blue.
For the further assessment of cell viability by plating efficiency, cells (2×10^6 cells/100 mm dish) from the human colorectal carcinoma cell line HT29 were treated for 48 hours with 40 μM M3N, 40 μM M3N-PEG-2NI or the DMSO vehicle. At the end of the treatment period, the cells from each dish were released by trypsinization, diluted 10,000 fold and replated into new 100 mm dishes. Eight days later colonies were stained with 0.25% methylene blue in 50% ethanol

On to “tri-O-methyl NDGA [Compound M3N, reference compound]”, for which the “Protein adducts in tumor sections by immunofluorescence” value in test [1] was “little evidence of adduct formation”. Also, the IC50 in test [2] is over 80 µM; in test [3], 36 to 64 µM; in test [4], 15 to 30 µM. The “Protein adducts by western blot (PAb2627 antibody)” value in test [5] is on record as “No protein adducts were detected”. Besides, in test [6], the “Ability of HT29 cells to replicate after treatment (plating efficiency)” value is on record as “able to replicate after treatment”.
